Test results as given in patent publication US20250375473A1, “Pharmaceutical composition for treating cancer comprising an ionic compound having metal ion binding thereto” (METAFINES.CO.LTD., priority 2018, published 2025).
Values after ≈ are worked out from the molar mass of the structure shown. Read-outs that look alike come from different tables or passages of the source.

Assays:
[1] = test system: DLD-1; experiment: Hetero salts vs homo salts, cell viability and cytotoxicity, DLD-1; assay type: cell-based; details: for viability at 10000 µM: DLD-1, read-out: cell viability, DLD-1 (10 mM)
Method: (§1) Hetero salts prepared according to the examples (ASCA101, ASCA201) and homo salts were applied to colorectal cancer cell lines, and their effects on cell viability and cytotoxicity were evaluated.
(§2) Herein, “Na-ASC” refers to sodium ascorbate, “Na-DCA” refers to sodium dichloroacetate, “Ca (ASC) 2” refers to calcium ascorbate, “Ca (DCA) 2” refers to calcium dichloroacetate, and “Ca (LA) 2” refers to calcium lactate.

[2] = test system: colorectal cancer cell line (DLD-1); experiment: MTT assay, 72 h, colorectal cancer cell line; assay type: cell-based; details: for IC50: Homo sapiens
Method: (§3) The calcium salts of Examples 1 to 3 were added to each well by concentration (20 mg/ ? , mg/ ? , 0.8 mg/ ? , 0.16 mg/ ? , 0.032 mg/ ? , 0.0064 mg/ ? , 0.00128 mg/ ? , 0.000256 mg/ ? ). […] The supernatant was removed using a centrifuge, DMSO 200 ? was added to each well to dissolve the MTT stained precipitate, and OD540 value was measured at 540 nm with an ELISA reader.

[3] = test system: SW480; experiment: Hetero salts vs homo salts, cell viability and cytotoxicity, SW480; assay type: cell-based; details: for viability at 5000 µM: SW480, read-out: cell viability, SW480 (5 mM)
Method: as §1, §2

[4] = test system: ovarian cancer cell line (A2780); experiment: MTT assay, 48 h, A2780
Method: (§5) 7 cell lines were aliquoted to each well of a 96-well plate at 5×10^3 cells, and cultured for 24 hours. […] The drug-treated cells were cultured in an incubator (37° C., 5% CO2) for 48 hours, and 5 mg/ ? MTT reagent 10 ? was added to each well and cultured for additional 4 hours. Then, culture medium was removed and DMSO 100 ? was treated to dissolve the MTT stained precipitate, and absorbance was measured at 540 nm with a microplate reader.

[5] = test system: liver cancer cell line (HepG2); experiment: MTT assay, 48 h, HepG2
Method: as §5

[6] = test system: brain cancer cell line (U87MG); experiment: MTT assay, 72 h, brain cancer cell line; assay type: cell-based; details: for IC50: Homo sapiens, U-87 MG
Method: as §3

[7] = test system: stomach cancer cell line (SNU-638); experiment: MTT assay, 48 h, SNU-638
Method: as §5

[8] = test system: HT-29 cell; experiment: IC50 of each drug alone, 48 h, HT-29; assay type: cell-based, human
Method: (§4) Then, various concentration of Example or chemical anticancer drugs (Fluorouracil (5-FU), SN-38, Paclitaxel (PTX)) were treated thereto alone.

[9] = test system: human colorectal cancer cell lines (HCT-116 and HT-29); experiment: Change in ascorbic acid level in cancer cells; assay type: cell-based; details: 1 mM; 24 h; lysate; vs untreated control
Method: After culture, the cultured cancer cells were pulverized with a homogenizer and centrifuged, and the concentration of ascorbic acid contained in the lysate was measured using an ascorbic acid assay kit (Biovision, San Francisco, CA).

[10] = test system: pancreatic cancer cell line (PANC-1); experiment: MTT assay, 48 h, PANC-1
Method: as §5

[11] = test system: lung cancer cell line (A-549); experiment: MTT assay, 48 h, A549
Method: as §5

[12] = test system: breast cancer cell line (MDA-MB-231); experiment: MTT assay, 72 h, breast cancer cell line; assay type: cell-based; details: for IC50 of Breast cancer cell line: MDA-MB-231, 72 h, MTT; for IC50: Homo sapiens, MDA-MB-231, 72 h
Method: as §3

[13] = test system: DLD-1 cell; experiment: IC50 of each drug alone, 48 h, DLD-1; assay type: cell-based
Method: as §4

[14] = test system: colorectal cancer cell line (HT-29); experiment: MTT assay, 48 h, HT-29
Method: as §5

[15] = test system: colorectal cancer cell line (HCT-116); experiment: MTT assay, 48 h, HCT-116; details: for IC50: Homo sapiens, HCT-116, 48 h
Method: as §5

[16] = test system: HCT-116 cell; experiment: IC50 of each drug alone, 48 h, HCT-116; assay type: cell-based, human
Method: as §4

[17] = test system: poly (ADP-ribose) polymerase 1 (PARP-1); experiment: Western blot, PARP-1 expression in HCT-116; assay type: cell-based, human; details: 24 h
Method: The cultured cancer cells were pulverized with a homogenizer and centrifuged, and the expression levels of poly (ADP-ribose) polymerase 1 (PARP-1), β-catenin, VEGF and β-actin proteins contained in the lysate were measured using Western blot.

[18] = test system: PDH enzyme; experiment: Time-dependent PDH enzyme activity in cancer cells; assay type: cell-based; details: DLD-1 and HT-29 cancer cells; FIG. 29
[19] = read-out: IC50 value, HCT-116 cell
[20] = Homo sapiens, DLD-1, read-out: cytotoxicity, DLD-1
[21] = Homo sapiens, SW480, read-out: cytotoxicity, SW-480
[22] = Homo sapiens, HCT-116, read-out: IC50 value, HCT-116 cell
[23] = Homo sapiens, A2780, 48 h, read-out: IC50 mM of A2780 Ovarian cancer
[24] = Homo sapiens, A2780, 48 h, read-out: IC50 of A2780 Ovarian cancer (mg/ml)
[25] = Homo sapiens, HepG2, 48 h, read-out: IC50 mM of HepG2 Liver cancer
[26] = Homo sapiens, HepG2, 48 h, read-out: IC50 of HepG2 Liver cancer (mg/ml)
[27] = Homo sapiens, SNU-638, 48 h, read-out: IC50 mM of SNU-638 Stomach cancer
[28] = Homo sapiens, SNU-638, 48 h, read-out: IC50 of SNU-638 Stomach cancer (mg/ml)
[29] = Homo sapiens, PANC-1, 48 h, read-out: IC50 mM of PANC-1 Pancreatic cancer
[30] = Homo sapiens, PANC-1, 48 h, read-out: IC50 of PANC-1 Pancreatic cancer (mg/ml)
[31] = Homo sapiens, A549, 48 h, read-out: IC50 mM of A549 Lung cancer
[32] = Homo sapiens, A549, 48 h, read-out: IC50 of A549 Lung cancer (mg/ml)
[33] = Homo sapiens, HT-29, 48 h, read-out: IC50 mM of HT-29 Colorectal cancer cell line
[34] = Homo sapiens, HT-29, 48 h, read-out: IC50 of HT-29 Colorectal cancer cell line (mg/ml)
[35] = read-out: IC50 mM of HCT-116 Colorectal cancer cell line
[36] = read-out: IC50 of HCT-116 Colorectal cancer cell line (mg/ml)

CC(O)C(=O)[O-].O=C1O[C@H]([C@@H](O)CO)C([O-])=C1O.[Ca+2] [Example 2, calcium salts of ascorbic acid and lactate]
IC50 [1]: 8.6 mM | IC50 of Colorectal cancer cell line ([2]; DLD-1, 72 h, MTT): 70 µg/mL | IC50 [3]: 2.6 mM | IC50 of A2780 Ovarian cancer (mg/ml) ([4]; 48 h, MTT, value in brackets): (0.05) mg/ml | IC50 ([4]; read-out: IC50 mM of A2780 Ovarian cancer, 48 h, MTT): 0.14 mM | IC50 of HepG2 Liver cancer (mg/ml) ([5]; 48 h, MTT, value in brackets): (0.79) mg/ml | IC50 ([5]; read-out: IC50 mM of HepG2 Liver cancer, 48 h, MTT): 2.3 mM | IC50 of Brain cancer cell line ([6]; U87MG, MTT): 600 µg/mL | IC50 of SNU-638 Stomach cancer (mg/ml) ([7]; 48 h, MTT, value in brackets): (0.49) mg/ml | IC50 ([7]; read-out: IC50 mM of SNU-638 Stomach cancer, 48 h, MTT): 1.44 mM | IC50 [8]: 1.79 mM | ascorbic acid concentration in cancer cells [9]: increased | IC50 of PANC-1 Pancreatic cancer (mg/ml) ([10]; 48 h, MTT, value in brackets): (0.14) mg/ml | IC50 ([10]; read-out: IC50 mM of PANC-1 Pancreatic cancer, 48 h, MTT): 0.4 mM | IC50 of A549 Lung cancer (mg/ml) ([11]; 48 h, MTT, value in brackets): (1.06) mg/ml | IC50 ([11]; read-out: IC50 mM of A549 Lung cancer, 48 h, MTT): 3.1 mM | IC50 of Breast cancer cell line [12]: 50 µg/mL | IC50 [13]: 0.34 mM | IC50 of HT-29 Colorectal cancer cell line (mg/ml) ([14]; 48 h, MTT, value in brackets): (0.23) mg/ml | IC50 ([14]; read-out: IC50 mM of HT-29 Colorectal cancer cell line, 48 h, MTT): 0.66 mM | IC50 of HCT-116 Colorectal cancer cell line (mg/ml) ([15]; 48 h, MTT, value in brackets): (0.11) mg/ml | IC50 [16, 19]: 430 µM | concentration at which expression level of full length PARP-1 was decreased the most [17]: 0.34 mg/mL

O=C([O-])C(Cl)Cl.[Na+] [Na-DCA, sodium dichloroacetate]
viability at 10000 µM ([1]; Homo sapiens): 75.4% | IC50 [1, 20]: > 10 mM | viability at 5000 µM ([3]; Homo sapiens): 99.8% | IC50 [3, 21]: > 5 mM

CC(=O)O[C@H]1C(=O)[C@@]2(C)[C@H]([C@H](OC(=O)c3ccccc3)[C@]3(O)C[C@H](OC(=O)[C@H](O)[C@@H](NC(=O)c4ccccc4)c4ccccc4)C(C)=C1C3(C)C)[C@]1(OC(C)=O)CO[C@@H]1C[C@@H]2O [Paclitaxel (PTX), Paclitaxel]
IC50 [16, 22]: 0.0078 µM

O=C(O)C(Cl)Cl [Dichloroacetic acid, dichloroacetic acid, reference compound]
IC50 ([2]; DLD-1, 72 h, read-out: IC50 of Colorectal cancer cell line (mg/ml)): 1.21 mg/mL (≈ 9.38 mM) | IC50 [4, 23]: > 5 mM | IC50 [4, 24]: > 1.7 mg/mL | IC50 [5, 25]: > 5 mM | IC50 [5, 26]: > 1.7 mg/mL | IC50 ([6]; read-out: IC50 of Brain cancer cell line (mg/ml)): 3.71 mg/mL (≈ 28.8 mM) | IC50 [7, 27]: > 5 mM | IC50 [7, 28]: > 1.7 mg/mL | IC50 [10, 29]: > 5 mM | IC50 [10, 30]: > 1.7 mg/mL | time-dependent PDH activity [18]: peaked at 6 hours post-treatment and subsequently declined | IC50 [11, 31]: > 5 mM | IC50 [11, 32]: > 1.7 mg/mL | IC50 ([12]; read-out: IC50 of Breast cancer cell line (mg/ml)): 0.43 mg/mL (≈ 3.33 mM) | IC50 [14, 33]: > 5 mM | IC50 [14, 34]: > 1.7 mg/mL | IC50 [15, 35]: > 5 mM | IC50 [15, 36]: > 1.7 mg/mL

CCc1c2c(nc3ccc(O)cc13)-c1cc3c(c(=O)n1C2)COC(=O)[C@]3(O)CC [SN-38]
IC50 [16, 19]: 0.25 µM

CC(O)C(=O)[O-].O=C([O-])C(Cl)Cl.[Ca+2] (stereo not shown) [Example 3, calcium salts of dichloroacetic acid and lactate]
IC50 of Colorectal cancer cell line ([2]; DLD-1, 72 h, MTT): 860 µg/mL | IC50 of Brain cancer cell line ([6]; U87MG, MTT): 800 µg/mL | IC50 of Breast cancer cell line [12]: 50 µg/mL | concentration at which expression level of full length PARP-1 was decreased the most [17]: 0.3 mg/mL

calcium dichloroacetate [Ca(DCA)2]
cell viability, DLD-1 (10 mM) [1]: 62.53 | cell viability, SW480 (5 mM) [3]: 105.98

calcium ascorbate [Ca(ASC)2]
cell viability, DLD-1 (10 mM) [1]: 27.51 | cell viability, SW480 (5 mM) [3]: 33.19 | ascorbic acid concentration in cancer cells [9]: lower level of increased ascorbic acid concentration

O=C1O[C@H]([C@@H](O)CO)C([O-])=C1O.[Na+] [Na-ASC, sodium ascorbate]
viability at 10000 µM ([1]; Homo sapiens): 65.3% | IC50 [1, 20]: 9.6 mM | viability at 5000 µM ([3]; Homo sapiens): 40.8% | IC50 [3, 21]: 3 mM

O=c1[nH]cc(F)c(=O)[nH]1 [Fluorouracil (5-FU), Fluorouracil]
IC50 [16, 22]: 6 µM

O=C1O[C@H]([C@@H](O)CO)C(O)=C1O [ascorbic acid, reference compound]
IC50 ([2]; DLD-1, 72 h, MTT, read-out: IC50 of Colorectal cancer cell line): 0.09 mg/mL (≈ 0.511 mM) | IC50 [4, 23]: 0.15 mM | IC50 [4, 24]: 0.05 mg/mL | IC50 [5, 25]: 4.2 mM | IC50 [5, 26]: 1.44 mg/mL | IC50 ([6]; U87MG, MTT, read-out: IC50 of Brain cancer cell line): 0.9 mg/mL (≈ 5.11 mM) | IC50 [7, 27]: 2.48 mM | IC50 [7, 28]: 0.85 mg/mL | ascorbic acid concentration in cancer cells [9]: lower level of increased ascorbic acid concentration | IC50 [10, 29]: 0.37 mM | IC50 [10, 30]: 0.13 mg/mL | IC50 [11, 31]: > 5 mM | IC50 [11, 32]: > 1.7 mg/mL | IC50 ([12]; read-out: IC50 of Breast cancer cell line): 0.06 mg/mL (≈ 0.341 mM) | IC50 [14, 33]: 0.93 mM | IC50 [14, 34]: 0.32 mg/mL | IC50 [15, 35]: 0.27 mM | IC50 [15, 36]: 0.09 mg/mL
